Measurements published in patent US20210188813A1, “EZH2 INHIBITOR AND PHARMACEUTICALLY ACCEPTABLE SALTS AND POLYMORPHIC SUBSTANCES THEREOF, AND APPLICATION OF EZH2 INHIBITOR” (SHANGHAI HAIYAN PHARMACEUTICAL TECHNOLOGY CO., LTD., priority 2018, published 2021).
pIC50: −log10 of the molar value. Each block holds one compound with its values, some of them ahead of it.

Assays:
[1] = Dynamic solubility experiment; type: physicochemical; conditions: for Solubility: room temperature, 24 h
From the text: The free base samples and the two crystal forms were plotted separately in the experiment.

[2] = Solid state stability experiment; type: physicochemical
From the text: Detected changes in crystal form and purity at 4 and 7 days.

[3] = target: T1, PRC2 (EZH2-Y641F) (Homo sapiens, UniProt Q15910, Y641F); test: In vitro methyltransferase assay; type: biochemical
T1 construct: purchased Active motif
T1 sequence (Q15910 whole entry Y641F): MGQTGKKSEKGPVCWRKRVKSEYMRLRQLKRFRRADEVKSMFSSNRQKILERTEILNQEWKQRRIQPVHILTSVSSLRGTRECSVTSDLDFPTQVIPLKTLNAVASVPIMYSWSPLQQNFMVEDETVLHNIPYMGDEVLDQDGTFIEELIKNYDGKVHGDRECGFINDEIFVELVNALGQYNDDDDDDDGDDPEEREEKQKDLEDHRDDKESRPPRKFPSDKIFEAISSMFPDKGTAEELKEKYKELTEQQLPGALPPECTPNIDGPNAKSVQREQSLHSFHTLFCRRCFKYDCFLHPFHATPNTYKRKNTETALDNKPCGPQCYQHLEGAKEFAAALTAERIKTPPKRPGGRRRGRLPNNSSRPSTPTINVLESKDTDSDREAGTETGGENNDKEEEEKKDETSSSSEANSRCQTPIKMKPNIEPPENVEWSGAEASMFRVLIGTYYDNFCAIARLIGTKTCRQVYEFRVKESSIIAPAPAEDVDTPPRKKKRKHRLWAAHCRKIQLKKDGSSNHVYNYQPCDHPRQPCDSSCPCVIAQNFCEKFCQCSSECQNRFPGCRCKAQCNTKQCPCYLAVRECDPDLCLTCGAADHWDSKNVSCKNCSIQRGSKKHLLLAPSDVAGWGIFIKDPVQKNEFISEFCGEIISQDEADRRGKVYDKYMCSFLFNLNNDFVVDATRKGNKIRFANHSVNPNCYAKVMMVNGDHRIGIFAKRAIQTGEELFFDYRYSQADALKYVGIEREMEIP
T1 sequence (O75530 whole entry partner): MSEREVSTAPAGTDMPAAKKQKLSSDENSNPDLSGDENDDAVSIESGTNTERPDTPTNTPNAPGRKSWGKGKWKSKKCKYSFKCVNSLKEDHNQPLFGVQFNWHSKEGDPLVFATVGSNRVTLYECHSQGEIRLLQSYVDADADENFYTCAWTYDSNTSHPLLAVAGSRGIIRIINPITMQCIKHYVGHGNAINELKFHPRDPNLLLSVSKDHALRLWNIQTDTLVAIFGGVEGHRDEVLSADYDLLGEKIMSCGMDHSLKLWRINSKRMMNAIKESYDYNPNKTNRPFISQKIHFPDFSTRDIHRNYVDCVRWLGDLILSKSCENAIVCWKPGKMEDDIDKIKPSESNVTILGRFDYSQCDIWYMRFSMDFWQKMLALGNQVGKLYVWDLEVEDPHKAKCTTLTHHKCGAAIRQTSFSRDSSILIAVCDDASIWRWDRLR
T1 sequence (Q15022 whole entry partner): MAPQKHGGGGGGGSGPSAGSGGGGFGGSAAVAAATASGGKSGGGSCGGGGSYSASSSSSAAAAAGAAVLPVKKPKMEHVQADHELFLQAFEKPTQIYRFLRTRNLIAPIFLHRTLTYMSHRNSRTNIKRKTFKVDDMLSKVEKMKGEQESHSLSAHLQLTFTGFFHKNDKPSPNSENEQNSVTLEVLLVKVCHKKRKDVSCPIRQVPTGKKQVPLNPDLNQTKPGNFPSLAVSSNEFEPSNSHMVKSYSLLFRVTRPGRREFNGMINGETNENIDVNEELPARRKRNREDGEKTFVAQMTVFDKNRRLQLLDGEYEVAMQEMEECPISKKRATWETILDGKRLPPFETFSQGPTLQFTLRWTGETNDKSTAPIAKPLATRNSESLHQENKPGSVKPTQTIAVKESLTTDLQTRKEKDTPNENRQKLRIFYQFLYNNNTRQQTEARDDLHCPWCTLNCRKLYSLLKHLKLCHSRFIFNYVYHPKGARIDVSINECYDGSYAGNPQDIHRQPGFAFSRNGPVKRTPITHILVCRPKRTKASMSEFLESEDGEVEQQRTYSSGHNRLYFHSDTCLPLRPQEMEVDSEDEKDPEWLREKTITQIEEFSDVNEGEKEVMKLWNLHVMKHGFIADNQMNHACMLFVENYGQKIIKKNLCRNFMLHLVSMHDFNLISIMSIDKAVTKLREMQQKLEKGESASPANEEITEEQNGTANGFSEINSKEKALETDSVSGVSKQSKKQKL
T1 sequence (Q09028 whole entry partner): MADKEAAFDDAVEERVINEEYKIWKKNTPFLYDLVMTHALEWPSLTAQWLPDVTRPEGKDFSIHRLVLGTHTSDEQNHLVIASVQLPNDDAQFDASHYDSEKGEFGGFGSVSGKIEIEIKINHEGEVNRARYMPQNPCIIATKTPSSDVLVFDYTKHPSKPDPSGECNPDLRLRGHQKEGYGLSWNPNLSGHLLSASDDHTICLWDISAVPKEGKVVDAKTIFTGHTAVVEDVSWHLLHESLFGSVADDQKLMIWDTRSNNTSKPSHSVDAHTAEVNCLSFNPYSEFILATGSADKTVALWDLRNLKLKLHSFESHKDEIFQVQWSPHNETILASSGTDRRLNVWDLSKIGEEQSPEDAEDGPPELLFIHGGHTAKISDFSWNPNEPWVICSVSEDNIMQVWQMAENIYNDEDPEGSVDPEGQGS
T1 sequence (Q6ZN18 whole entry partner): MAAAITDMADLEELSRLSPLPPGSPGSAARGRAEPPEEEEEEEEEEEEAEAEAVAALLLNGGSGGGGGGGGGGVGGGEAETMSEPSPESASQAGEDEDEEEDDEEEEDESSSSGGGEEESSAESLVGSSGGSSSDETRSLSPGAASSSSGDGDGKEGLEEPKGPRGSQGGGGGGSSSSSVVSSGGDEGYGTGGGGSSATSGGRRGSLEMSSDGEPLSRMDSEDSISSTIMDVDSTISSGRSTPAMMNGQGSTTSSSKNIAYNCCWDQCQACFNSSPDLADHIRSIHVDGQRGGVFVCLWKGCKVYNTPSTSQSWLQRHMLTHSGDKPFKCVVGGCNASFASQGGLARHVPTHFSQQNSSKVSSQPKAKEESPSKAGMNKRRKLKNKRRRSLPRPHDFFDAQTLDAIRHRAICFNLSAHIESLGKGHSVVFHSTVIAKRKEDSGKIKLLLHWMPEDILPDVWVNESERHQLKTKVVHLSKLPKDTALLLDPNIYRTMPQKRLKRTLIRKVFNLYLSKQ
Protocol: Recombinant PRC2 (EZH2-Y641F) was purchased from Active motif, S-adenosyl-methionin chloride (SAM) and Poly-L-lysine (PLL) were purchased from Sigma-Aldrich, H3(1-50)K27me1 peptide was purchased from Cisbio. LANCEUltra (Perkinelmer) system was used for detection. For the enzyme activity test, tested compounds are 1:3 diluted for 8-points, and added into each well, then 100 ng enzyme is added. And then the buffer [20 mM Tris pH8.5, 2 mM MgCl2, 0.01% Tween-20, 1 mM TCEP] containing […]/250 nM H3 (1-50)K27me1 premixtures are added. After 3 hours enzyme reaction at RT, the premixed detection buffer (PLL, Europium antibody and Ulight) is added, and react for 1 h at RT, then read fluorescence on Tecan infinite pro. IC50s are counted by XLfit using a four-parameter model.

[4] = tested on: Pfeiffer cells; test: Cell proliferation assay, Pfeiffer; type: cell-based; conditions: Homo sapiens, Pfeiffer, 144 h; 6 days' growth, cell counting kit-8
Protocol: Cell lines Pfeiffer (CRL-2632), suDHL-6 (CRL-2959) and suDHL-10 (CRL-2963) were obtained from ATCC. All cell lines were cultured in RPMI-1640 medium (Gibco) plus 10% FBS (Gibco). Cells are harvested by centrifuge and densities are determined using a CounterStar cell counter. Appropriate number of cells are plated in a96-well culture plate and pre-incubate overnight. Tested compounds are 1:3 diluted for 8-points and added into each well. After 6 days' growth, cell counting kit-8 (Dojindo) is used to detect cell viability and read on Tecan infinite pro. IC50s are counted by XLfit using a four-parameter model.

SMILES: CCc1c(C(=O)NCc2c(C)cc(C)[nH]c2=O)cc2c(cnn2C)c1N(CC)[C@H]1CC[C@H](N2CC(OC)C2)CC1.Cl [Crystal form A]
Phenomenon ([1]; 0.1M HCl): clear
Solubility ([1]; 0.1M HCl): ≥62.8 mg/mL
Phenomenon ([1]; H2O): clear
Solubility ([1]; H2O): ≥81.4 mg/mL
Phenomenon ([1]; pH 4.5 buffer): clear
Solubility ([1]; pH 4.5 buffer): ≥43.8 mg/mL
Phenomenon ([1]; pH 6.8 buffer): clear
Solubility ([1]; pH 6.8 buffer): ≥74.6 mg/mL
Content (%) ([2]; 4° C. 0 d): 96.62%
Properties ([2]; 4° C. 0 d): Dark yellow
RRT(%) 0.86 ([2]; 4° C. 0 d): 0.21%
RRT(%) 0.89 ([2]; 4° C. 0 d): 0.11%
RRT(%) 0.94 ([2]; 4° C. 0 d): 0.31%
RRT(%) 0.97 ([2]; 4° C. 0 d): 0.09%
RRT(%) 1.04 ([2]; 4° C. 0 d): 0.42%
RRT(%) 1.07 ([2]; 4° C. 0 d): 0.67%
RRT(%) 1.10 ([2]; 4° C. 0 d): 0.42%
RRT(%) 1.13 ([2]; 4° C. 0 d): 0.18%
RRT(%) 1.15 ([2]; 4° C. 0 d): 0.38%
RRT(%) 1.16 ([2]; 4° C. 0 d): 0.60%
Total impurities (%) ([2]; 4° C. 0 d): 3.38%
Content (%) ([2]; 40° C./75% RH 4 d): 96.34%
Properties ([2]; 40° C./75% RH 4 d): Dark yellow
RRT(%) 0.86 ([2]; 40° C./75% RH 4 d): 0.21%
RRT(%) 0.89 ([2]; 40° C./75% RH 4 d): 0.09%
RRT(%) 0.94 ([2]; 40° C./75% RH 4 d): 0.28%
RRT(%) 0.97 ([2]; 40° C./75% RH 4 d): 0.09%
RRT(%) 1.04 ([2]; 40° C./75% RH 4 d): 0.49%
RRT(%) 1.07 ([2]; 40° C./75% RH 4 d): 0.75%
RRT(%) 1.10 ([2]; 40° C./75% RH 4 d): 0.51%
RRT(%) 1.13 ([2]; 40° C./75% RH 4 d): 0.19%
RRT(%) 1.15 ([2]; 40° C./75% RH 4 d): 0.41%
RRT(%) 1.16 ([2]; 40° C./75% RH 4 d): 0.60%
RRT(%) 1.20 ([2]; 40° C./75% RH 4 d): 0.07%
Total impurities (%) ([2]; 40° C./75% RH 4 d): 3.66%
Content (%) ([2]; 40° C./75% RH 7 d): 96.60%
Properties ([2]; 40° C./75% RH 7 d): Dark yellow
RRT(%) 0.86 ([2]; 40° C./75% RH 7 d): 0.22%
RRT(%) 0.89 ([2]; 40° C./75% RH 7 d): 0.09%
RRT(%) 0.94 ([2]; 40° C./75% RH 7 d): 0.31%
RRT(%) 0.97 ([2]; 40° C./75% RH 7 d): 0.09%
RRT(%) 1.04 ([2]; 40° C./75% RH 7 d): 0.47%
RRT(%) 1.07 ([2]; 40° C./75% RH 7 d): 0.75%
RRT(%) 1.10 ([2]; 40° C./75% RH 7 d): 0.32%
RRT(%) 1.13 ([2]; 40° C./75% RH 7 d): 0.11%
RRT(%) 1.15 ([2]; 40° C./75% RH 7 d): 0.38%
RRT(%) 1.16 ([2]; 40° C./75% RH 7 d): 0.59%
Total impurities (%) ([2]; 40° C./75% RH 7 d): 3.40%
solid state stability ([2]; 40° C./75% RH, 4 and 7 days): stable
Content (%) ([2]; 60° C. 4 d): 85.19%
Properties ([2]; 60° C. 4 d): Dark yellow
RRT(%) 0.86 ([2]; 60° C. 4 d): 0.15%
RRT(%) 0.89 ([2]; 60° C. 4 d): 0.14%
RRT(%) 0.94 ([2]; 60° C. 4 d): 0.67%
RRT(%) 0.97 ([2]; 60° C. 4 d): 0.56%
RRT(%) 1.04 ([2]; 60° C. 4 d): 1.25%
RRT(%) 1.07 ([2]; 60° C. 4 d): 10.65%
RRT(%) 1.10 ([2]; 60° C. 4 d): 0.29%
RRT(%) 1.13 ([2]; 60° C. 4 d): 0.08%
RRT(%) 1.15 ([2]; 60° C. 4 d): 0.44%
RRT(%) 1.16 ([2]; 60° C. 4 d): 0.52%
RRT(%) 1.20 ([2]; 60° C. 4 d): 0.05%
Total impurities (%) ([2]; 60° C. 4 d): 14.81%
Content (%) ([2]; 60° C. 7 d): 75.90%
Properties ([2]; 60° C. 7 d): Dark yellow
RRT(%) 0.86 ([2]; 60° C. 7 d): 0.11%
RRT(%) 0.89 ([2]; 60° C. 7 d): 0.07%
RRT(%) 0.92 ([2]; 60° C. 7 d): 0.22%
RRT(%) 0.94 ([2]; 60° C. 7 d): 0.63%
RRT(%) 0.97 ([2]; 60° C. 7 d): 0.66%
RRT(%) 1.04 ([2]; 60° C. 7 d): 1.28%
RRT(%) 1.07 ([2]; 60° C. 7 d): 19.89%
RRT(%) 1.10 ([2]; 60° C. 7 d): 0.21%
RRT(%) 1.13 ([2]; 60° C. 7 d): 0.05%
RRT(%) 1.15 ([2]; 60° C. 7 d): 0.38%
RRT(%) 1.16 ([2]; 60° C. 7 d): 0.51%
RRT(%) 1.20 ([2]; 60° C. 7 d): 0.09%
Total impurities (%) ([2]; 60° C. 7 d): 24.10%
change in crystal form on storage ([2]; 60° C. and 40° C./75% RH, 4 and 7 days): the crystal form has not changed
change of impurities ([2]; 60° C., 4 and 7 days): the impurities increase obviously

pIC50 [3]: 5.32
SMILES: CCN(c1cc(C(=O)NCc2c(C)cc(C)[nH]c2=O)c(C)c2c1cnn2C)C1CCC(N(C)C)CC1 (centres unmarked) [D2]
pIC50 [4]: < 5.52

pIC50 [3]: < 5.00
SMILES: CCN(c1cc(C(=O)NCc2c(C)cc(C)[nH]c2=O)c(C)c2c1cnn2C)C1CCC(N2CC(OC)C2)CC1 (centres unmarked) [D3]
pIC50 [4]: < 5.52

pIC50 [3]: < 5.00
SMILES: CCN(c1cc(C(=O)NCc2c(C)cc(C)[nH]c2=O)c(C)c2c1cnn2C)C1CCOCC1 [D1, N-((4,6-dimethyl-2-oxo-1,2-dihydropyridin-3-yl)methyl)-4-(ethyl (tetrahydro-2H-pyran-4-yl)amino)-1,7-dimethyl-1H-indazole-6-carboxamide]
pIC50 [4]: < 5.00
